Measured values as given in patent US4732980A, “Intermediates for 3-amino-1,2,5-thiadiazole-1-oxides” (Smith Kline & French Laboratories Limited, priority 1985, dated 1988).

Columns and labels:
histamine H2-receptors [1] = target: T1, histamine H2-receptors (Cavia porcellus, UniProt P47747); experiment: standard guinea pig atrium test (inhibition of histamine-induced tachycardia in the isolated guinea pig right atrium); format: cell-based; conditions: for Kb: isolated guinea pig right atrium, read-out: pA2 (guinea-pig atrium) (converted); for slope of response (figure in brackets with pA2, guinea-pig atrium): slope belonging to pA2, guinea-pig atrium
T1 construct: from tissue; host or cells: isolated guinea pig right atrium
Excerpt: (§1) The measurement of inhibition of histamine-stimulated secretion of gastric acid from the lumen-perfused stomachs of rats anaesthetised with urethane, and the measurement of inhibition of histamine-induced tachycardia in the isolated guinea pig right atrium, are detailed in U.S. Pat. No. 4,385,058.
(§2) To illustrate the level of activity of these compounds the following data were obtained in the standard guinea pig atrium test and the standard lumen-perfused rat test (for example see EP No. -A-49173).

histamine H2-receptors [2] = target: T2, histamine H2-receptors (Rattus norvegicus, UniProt P25102); experiment: standard lumen-perfused rat test (inhibition of histamine-stimulated secretion of gastric acid from the lumen-perfused stomachs of rats anaesthetised with urethane); format: in vivo
T2 construct: secretion of gastric acid from the lumen-perfused stomachs of rats anaesthetised with urethane; from tissue; host or cells: stomach of urethane-anaesthetised rats (in vivo, lumen-perfused)
Excerpt: These are actions of histamine which, according to Ash and Schild, Brit. J. Pharmac. Chemother. 27 247 (1966), are not mediated by histamine H1 -receptors.
as §1, §2

T1 sequence (P47747 whole entry): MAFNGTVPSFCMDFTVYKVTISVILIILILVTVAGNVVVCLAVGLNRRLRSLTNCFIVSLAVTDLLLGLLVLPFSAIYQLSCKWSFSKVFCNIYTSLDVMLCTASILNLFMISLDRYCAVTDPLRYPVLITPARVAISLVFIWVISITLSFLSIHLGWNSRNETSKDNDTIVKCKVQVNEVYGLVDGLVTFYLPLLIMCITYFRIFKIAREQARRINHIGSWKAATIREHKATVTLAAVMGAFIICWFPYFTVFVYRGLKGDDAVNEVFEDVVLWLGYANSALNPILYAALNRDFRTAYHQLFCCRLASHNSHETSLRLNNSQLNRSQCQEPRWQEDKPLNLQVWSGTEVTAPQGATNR
T2 sequence (P25102 whole entry, the tested form may be a part): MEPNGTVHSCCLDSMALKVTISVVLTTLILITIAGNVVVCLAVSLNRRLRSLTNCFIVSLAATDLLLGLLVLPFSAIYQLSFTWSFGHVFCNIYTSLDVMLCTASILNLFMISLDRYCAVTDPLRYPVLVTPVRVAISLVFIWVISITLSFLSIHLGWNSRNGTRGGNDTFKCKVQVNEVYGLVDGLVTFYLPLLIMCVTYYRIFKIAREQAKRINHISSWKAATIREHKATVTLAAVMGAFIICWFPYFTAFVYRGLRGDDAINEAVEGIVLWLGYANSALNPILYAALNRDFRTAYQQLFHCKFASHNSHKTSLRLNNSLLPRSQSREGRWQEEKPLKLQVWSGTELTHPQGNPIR

Kb (histamine H2-receptors [1]) [nM]	slope of response (figure in brackets with pA2, guinea-pig atrium) (histamine H2-receptors [1])	ED50 (histamine H2-receptors [2]) [mg/kg]	SMILES
3020	0.95	1.1	Nc1n[s+]([O-])nc1NCCCCC#CCN1CCCCC1 (stereo not drawn) [Example 1, 3-Amino-4-[7-piperidinohept-5-ynylamino]-1,2,5-thiadiazole-1-oxide]
646	0.61	0.16	CN(C)CC#CCCCCNc1n[s+]([O-])nc1N (stereo not drawn) [Example 2, 3-Amino-4-[7-dimethylaminohept-5-ynylamino]-1,2,5--thiadiazole-1-oxide]
151	0.50	0.1	CN(C)CC#CCCCCNC1=NS(=O)(=O)N=C1N [Example 3, 3-Amino-4-[7-dimethylaminohept-5-ynylamino]-1,2,5-thiadiazole-1,1-dioxide]
100	0.88	0.027	CN(C)CC#CCCCNC1=NS(=O)(=O)N=C1N [Example 4, 3-Amino-4-[6-dimethylaminohex-4-ynylamino]-1,2,5-thiadiazole-1,1-dioxide]
